Test results reported in patent US20080146626A1, “USE OF EPOTHILONES IN THE TREATMENT OF OSTEOPOROSIS AND RELATED DISEASES” (priority 2006, published 2008).
Several values for one entry are separate records, joined by “and”; a condition that tells them apart may be missing. Equal entries are not always repeated.

What was measured:
[1] = system: human osteoclasts; assay: osteoclast activity assay (bone resorption on bovine bone slices, CTX/TRACP 5b); format: cell-based; conditions: for concentration of CTX released from bone collagen into the culture medium: resorption phase days 7-10
Protocol: The objective of this study is to investigate the effects of selected test compounds selected on resorbing activity of human osteoclasts in vitro. Bone resorption is studied using a model where human osteoclast precursor cells derived from bone marrow are cultured for 7 days on bovine bone slices and allowed to differentiate into bone-resorbing osteoclasts. At day 7, the culture medium is changed, the test compounds are added, and the formed mature osteoclasts are allowed to resorb bone in an additional 3-day culture period. Tartrate-resistant acid phosphatase isoform 5b activity (TRACP 5b) is measured from the culture medium collected at day 7 as an index of the number of osteoclasts formed in each well during the differentiation period. After the totally 10 days culture period, C-terminal cross-linked telopeptides of type I collagen (CTX) are quantitated from the culture medium as an index of bone resorption. The results are expressed as the resorption index (CTX at day 10/TRACP 5b at day 7), which describes the mean activity of a single osteoclast. In each test, a baseline group without test compounds is included to obtain a baseline value. […] The test system can also be modified by adding the test compounds at the beginning of the culture period to study if the test compounds affect osteoclast differentiation. Osteoprotegerin is used as a reference inhibitor of osteoclast differentiation in such cultures.
Used herein is a method where osteoclast precursor cells derived from human bone marrow are cultured on bovine bone slices. The cells are first allowed to differentiate into mature bone-resorbing osteoclasts, and the formed osteoclasts are then allowed to resorb bone. The system is ideally suitable for determining the effects of test compounds on bone resorption in vitro. Test compounds are added into the cell cultures after the differentiation period, and their effect on the resorbing activity of mature osteoclasts is determined.
(§1) The bone resorption assay is performed according to the above described Standard Operation Procedure. Shortly, human bone marrow-derived stem cells are suspended to culture medium and allowed to attach to bovine bone slices. The bone slices are transferred into 96-well tissue culture plates containing culture medium with appropriate amounts of important growth factors favoring osteoclast differentiation, including M-CSF, RANK-ligand and TGF-beta. The cells are incubated in a CO2 incubator in humidified atmosphere of 95% air and 5% carbon dioxide at 37° C. At day 7 when osteoclast differentiation is completed, the culture medium is replaced with culture medium containing conditions favoring osteoclast activity, and the test compounds are added. The cell culture is continued for an additional three days, during which the formed mature osteoclasts are allowed to resorb bone in the presence of vehicle, control inhibitor (E64) or test compounds at different concentrations. Tartrate-resistant acid phosphatase isoform 5b activity (TRACP 5b) is measured from the culture medium collected at day 7 using the BoneTRAP® assay (SBA-Sciences, Oulu, Finland). Medium TRACP 5b activity describes the number of osteoclasts formed in each well during the differentiation period. At the end of the culture period, C-terminal cross-linked telopeptides of type I collagen (CTX) released from the bone slices are quantitated as an index of bone resorption using CrossLaps® for culture assay (Nordic Bioscience, Herlev, Denmark). The results are expressed as the resorption index (CTX at day 10/TRACP 5b at day 7), which describes the mean activity of a single osteoclast. When necessary, the ToxiLight® assay (Cambrex, East Rutherford, N.J., USA) is used to detect cytotoxic effects of test compounds.
Two separate experiments were performed in this study, an osteoclast differentiation assay and an osteoclast activity assay.

[2] = system: human osteoclasts; assay: cytotoxicity in human osteoclast activity assay (luminescence released from dying cells); conditions: day 10; for Cytotoxicity, % compared with baseline group: baseline mean = 100%
Protocol: as §1
Two separate experiments were performed in this study, an osteoclast differentiation assay and an osteoclast activity assay. In the osteoclast differentiation assay, osteoclast precursor cells were cultured for 7 days in the presence of the test compound, and TRACP 5b released into the culture medium was determined at day 7 as an index of the number of osteoclasts formed. Cytotoxicity was determined by quantitating the amount of dying cells from the culture medium at day 2. In the osteoclast activity assay, the test compounds were added after osteoclast differentiation was completed at day 7, and the mature osteoclasts were cultured for an additional 3 days, allowing them to resorb bone. […] Medium CTX was measured at day 10 to quantitate bone resorption during days 7-10, and the results are expressed as the resorption index CTX at day 10/TRACP 5b at day 7, which describes the mean resorbing activity of a single osteoclast. Cytotoxicity was determined by quantitating the amount of dying cells from the culture medium at day 10.
The test compounds were added after osteoclast differentiation was completed at day 7, and the mature osteoclasts were cultured for an additional 3 days, allowing them to resorb bone. […] Medium CTX was measured at day 10 to quantitate bone resorption during days 7-10, and the results are expressed as the resorption index CTX at day 10/TRACP 5b at day 7, which describes the mean osteoclast activity. Cytotoxicity was determined by quantitating the amount of dying cells from the culture medium at day 10.

[3] = system: human osteoclast precursor cells derived from bone marrow; assay: osteoclast differentiation assay (medium TRACP 5b at day 7); format: cell-based
Protocol: The objective of this study is to investigate the effects of selected test compounds selected on resorbing activity of human osteoclasts in vitro. Bone resorption is studied using a model where human osteoclast precursor cells derived from bone marrow are cultured for 7 days on bovine bone slices and allowed to differentiate into bone-resorbing osteoclasts. […] In each test, a baseline group without test compounds is included to obtain a baseline value. […] The test system can also be modified by adding the test compounds at the beginning of the culture period to study if the test compounds affect osteoclast differentiation. Osteoprotegerin is used as a reference inhibitor of osteoclast differentiation in such cultures.
Appropriate dilutions were made from the stock solution to obtain the desired test concentrations (0.1 nM, 1 nM and 10 nM in osteoclast differentiation assay and 1 nM, 10 nM and 100 nM in osteoclast activity assay).

[4] = 1.0 μM E64, Mean of 6 replicates
[5] = Homo sapiens, Osteoclast, read-out: Resorbing activity, % of activity compared with baseline group

CC(C)C[C@H](NC(=O)[C@H]1O[C@@H]1C(=O)O)C(=O)NCCCCN=C(N)N [Compound E64, reference compound]
resorption index CTX at day 10/TRACP 5b at day 7 [1, 4]: 0.45 | concentration of CTX released from bone collagen into the culture medium [1, 4]: 8.44 nM | concentration of CTX released from bone collagen into the culture medium ([1]; 1.0 μM E64, single replicate): 9.13 nM and 10.96 nM and 7.91 nM and 7.78 nM and 9.39 nM and 5.45 nM | resorption index CTX at day 10/TRACP 5b at day 7 ([1]; 1.0 μM E64, single replicate): 0.41 (2×) and 0.64 and 0.38 and 0.59 and 0.29 | luminescence released from dying cells during the culture period [2, 4]: 1594 | luminescence released from dying cells during the culture period ([2]; 1.0 μM E64, single replicate): 1979 and 1666 and 1489 and 1568 and 1355 and 1507

C=CC[C@H]1C(=O)C(C)(C)[C@@H](O)CC(=O)O[C@H](c2ccc3sc(C)nc3c2)C[C@@H]2O[C@]2(C)CCC[C@H](C)[C@@H]1O [EPO-477, (1S,3S,7S,10R,11S,12S,16R)-7,11-dihydroxy-3-(2-methyl-benzothiazol-5-yl)-10-(prop-2-en-1-yl)-8,8,12,16-tetramethyl-4,17-dioxabicyclo[14.1.0]heptadecane-5,9-dione]
medium TRACP 5b activity at day 7 ([3]; 0.1 nM, Mean of 6 replicates, in U/L): 18.24 | medium TRACP 5b activity at day 7 ([3]; 0.1 nM, single replicate, in U/L): 14.72 and 16.43 and 21.41 and 17.57 and 17.37 and 21.95 | medium TRACP 5b activity at day 7 ([3]; 1 nM, Mean of 6 replicates, in U/L): 8.27 | medium TRACP 5b activity at day 7 ([3]; 1 nM, single replicate): 9.20 (2×) and 8.25 and 7.59 and 7.52 and 7.84 | medium TRACP 5b activity at day 7 ([3]; 10 nM, Mean of 6 replicates, in U/L): 2.45 | medium TRACP 5b activity at day 7 ([3]; 10 nM, single replicate, in U/L): 2.88 and 3.02 and 2.34 and 2.15 and 1.93 and 2.41 | resorption index CTX at day 10/TRACP 5b at day 7 ([1]; 1 nM, Mean of 6 replicates): 3.31 | concentration of CTX released from bone collagen into the culture medium ([1]; 1 nM, Mean of 6 replicates): 60.34 nM | concentration of CTX released from bone collagen into the culture medium ([1]; 1 nM, single replicate): 56.56 nM and 68.03 nM and 54.94 nM and 58.62 nM and 61.84 nM and 62.04 nM | resorption index CTX at day 10/TRACP 5b at day 7 ([1]; 1 nM, single replicate): 3.32 and 4.36 and 3.20 and 2.98 and 3.09 and 2.90 | resorption index CTX at day 10/TRACP 5b at day 7 ([1]; 10 nM, Mean of 6 replicates): 1.14 | concentration of CTX released from bone collagen into the culture medium ([1]; 10 nM, Mean of 6 replicates): 20.16 nM | concentration of CTX released from bone collagen into the culture medium ([1]; 10 nM, single replicate): 10.31 nM and 31.82 nM and 15.76 nM and 16.61 nM and 29.41 nM and 17.07 nM | resorption index CTX at day 10/TRACP 5b at day 7 ([1]; 10 nM, single replicate): 0.79 and 1.45 and 0.84 and 1.00 and 1.93 and 0.82 | resorption index CTX at day 10/TRACP 5b at day 7 ([1]; 100 nM, Mean of 6 replicates): 0.78 | concentration of CTX released from bone collagen into the culture medium ([1]; 100 nM, Mean of 6 replicates): 13.45 nM | concentration of CTX released from bone collagen into the culture medium ([1]; 100 nM, single replicate): 15.63 nM and 14.51 nM and 11.55 nM and 16.48 nM and 6.70 nM and 15.83 nM | resorption index CTX at day 10/TRACP 5b at day 7 ([1]; 100 nM, single replicate): 0.87 and 0.92 and 0.56 and 0.89 and 0.36 and 1.07 | activity at 0.0025 µM [1, 5]: 95% | activity at 0.005 µM [1, 5]: 103% | activity at 0.0075 µM [1, 5]: 109% | activity at 0.01 µM [1, 5]: 79% | activity at 0.015 µM [1, 5]: 45% | activity at 0.02 µM [1, 5]: 62% | activity at 0.05 µM [1, 5]: 38% | luminescence released from dying cells during the culture period ([2]; 1 nM, Mean of 6 replicates): 1864 | luminescence released from dying cells during the culture period ([2]; 1 nM, single replicate): 2371 and 1802 and 1966 and 1781 and 1685 and 1577 | Cytotoxicity, % compared with baseline group ([2]; 2.5 nM): 98% | Cytotoxicity, % compared with baseline group ([2]; 5 nM): 96% | Cytotoxicity, % compared with baseline group ([2]; 7.5 nM): 91% | luminescence released from dying cells during the culture period ([2]; 10 nM, Mean of 6 replicates): 1957 | Cytotoxicity, % compared with baseline group ([2]; 10 nM): 96% | luminescence released from dying cells during the culture period ([2]; 10 nM, single replicate): 2193 and 2097 and 2126 and 1815 and 1909 and 1599 | Cytotoxicity, % compared with baseline group ([2]; 15 nM): 79% | Cytotoxicity, % compared with baseline group ([2]; 20 nM): 78% | Cytotoxicity, % compared with baseline group ([2]; 50 nM): 85% | luminescence released from dying cells during the culture period ([2]; 100 nM, Mean of 6 replicates): 2666 | luminescence released from dying cells during the culture period ([2]; 100 nM, single replicate): 2837 and 2911 and 2428 and 2741 and 2112 and 2964

CC(=O)O[C@H]1C(=O)[C@@]2(C)[C@H]([C@H](OC(=O)c3ccccc3)[C@]3(O)C[C@H](OC(=O)[C@H](O)[C@@H](NC(=O)c4ccccc4)c4ccccc4)C(C)=C1C3(C)C)[C@]1(OC(C)=O)CO[C@@H]1C[C@@H]2O [Paclitaxel, paclitaxel, reference compound]
activity at 0.0025 µM [1, 5]: 109% | activity at 0.005 µM [1, 5]: 98% | activity at 0.01 µM [1, 5]: 87% | activity at 0.02 µM [1, 5]: 95% | activity at 0.05 µM [1, 5]: 64% | activity at 0.1 µM [1, 5]: 57% | activity at 0.2 µM [1, 5]: 72% | Cytotoxicity, % compared with baseline group ([2]; 2.5 nM): 121% | Cytotoxicity, % compared with baseline group ([2]; 5 nM): 99% | Cytotoxicity, % compared with baseline group ([2]; 10 nM): 121% | Cytotoxicity, % compared with baseline group ([2]; 20 nM): 116% | Cytotoxicity, % compared with baseline group ([2]; 50 nM): 131% | Cytotoxicity, % compared with baseline group ([2]; 100 nM): 120% | Cytotoxicity, % compared with baseline group ([2]; 200 nM): 125%

B1: OPG: Osteoprotegerin, reference inhibitor of osteoclast differentiation (PeproTech 450-14) (protein, UniProt O00300 22-401, looked up)
Tumor necrosis factor …: ETFPPKYLHYDEETSHQLLCDKCPPGTYLKQHCTAKWKTVCAPCPDHYYTDSWHTSDECLYCSPVCKELQYVKQECNRTHNRVCECKEGRYLEIEFCLKHRSCPPGFGVVQAGTPERNTVCKRCPDGFFSNETSSKAPCRKHTNCSVFGLLLTQKGNATHDNICSGNSESTQKCGIDVTLCEEAFFRFAVPTKFTPNWLSVLVDNLPGTKVNAESVERIKRQHSSQEQTFQLLKLWKHQNKDQDIVKKIIQDIDLCENSVQRHIGHANLTFEQLRSLMESLPGKKVGAEDIEKTIKACKPSDQILKLLSLWRIKNGDQDTLKGLMHALKHSKTYHFPKTVTQSLKKTIRFLHSFTMYKLYQKLFLEMIGNQVQSVKISCL
medium TRACP 5b activity at day 7 ([3]; 100 ng/ml OPG, Mean of 6 replicates, in U/L): 8.59 | medium TRACP 5b activity at day 7 ([3]; 100 ng/ml OPG, single replicate, in U/L): 4.46 and 10.67 and 10.53 and 10.19 and 5.70 and 10.00
